Reference: article PMC6271529, “Studies on the Anticonvulsant Activity and Influence on GABA-ergic Neurotransmission of 1,2,4-Triazole-3-thione-Based Compounds” (Molecules, 2014)
Like-named read-outs stand apart in the source and are kept apart here.

How the values were obtained:
[1] = tested on: maximal electroshock-induced seizures; experiment: Maximal electroshock-induced seizure (MES) test in mice; format: in vivo, mouse; settings: for p/t, number of animals protected against MES-induced seizures / number tested / responders at 300 mg/kg: 300 mg/kg i.p.; for responders at 300 mg/kg / ED50: Mus musculus, ip; for responders at 300 mg/kg: read-out: percent of animals protected against MES-induced seizures; for PI (TD50/ED50): protective index; for onset of action: significant protection as early as 15 min after parenteral administration, MES
How it was run: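 Mice given compound i.p. (300 mg/kg screen, then graded doses) 15, 30, 60 or 120 min before ear-clip electroshock (25 mA, 50 Hz, 0.2 s); tonic hind limb extension scored as seizure. ED50 (dose protecting 50% of animals) from Litchfield–Wilcoxon dose-response lines.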

[2] = tested on: GABAA receptors; experiment: Radioligand binding assay, [3H]muscimol, rat cerebral cortex; settings: for Percent of Specific Binding, GABAA: compound 1 × 10^−6 M, [3H]muscimol, rat cerebral cortex; for effect of added compound on affinity of GABA to GABAA receptors: radioligand binding, GABA in combination with compound;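 for Percent of Specific Binding, GABAA: low percentages indicate weak binding of the compound to the receptor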
Description: Binding experiments were conducted in 96-well microplates in a total volume of 200 μL of appropriate buffer. The reaction mixture included 50 μL solution of test compound, 50 μL of radioligand, and […] the tissue suspension. Rat cerebral cortex was used for each receptor. […] Radioligand binding data were analyzed using iterative curve fitting routines (GraphPAD/Prism, Version 3.0, San Diego, CA, USA). Ki values were calculated from the Cheng and Prusoff equation [36].

[3] = tested on: benzodiazepine (BDZ)-binding sites; experiment: Radioligand binding assay, [3H]flunitrazepam, rat cerebral cortex; settings: compound 1 × 10^−6 M;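 note: low percentages indicate weak binding of the compound to the site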
Description: Binding experiments were conducted in 96-well microplates in a total volume of 200 μL of appropriate buffer. The reaction mixture included 50 μL solution of test compound, 50 μL of radioligand, and […] the tissue suspension. Rat cerebral cortex was used for each receptor. The radioactivity was measured in MicroBeta TriLux 1450-liquid scintillation counter (PerkinElmer, Waltham, MA, USA). Radioligand binding data were analyzed using iterative curve fitting routines (GraphPAD/Prism, Version 3.0, San Diego, CA, USA). Ki values were calculated from the Cheng and Prusoff equation [36].

[4] = tested on: threshold for electroconvulsions; set-up: method as in PMID 22732650; settings: cited from earlier work
[5] = sub-protective doses of the compound co-administered with valproate; cited from earlier work
[6] = pretreatment time 120 min, mice
[7] = chimney TD50 / MES ED50, pretreatment time 15 min
[8] = chimney TD50 / MES ED50, pretreatment time 30 min
[9] = chimney TD50 / MES ED50, pretreatment time 60 min
[10] = chimney TD50 / MES ED50, pretreatment time 120 min

Row | Structure (SMILES) | p/t, number of animals protected against MES-induced seizures / number tested ([1]; pretreatment time 15 min, mice) | p/t, number of animals protected against MES-induced seizures / number tested ([1]; pretreatment time 30 min, mice) | p/t, number of animals protected against MES-induced seizures / number tested ([1]; pretreatment time 60 min, mice) | p/t, number of animals protected against MES-induced seizures / number tested [1, 6] | PI (TD50/ED50) [1, 7] | PI (TD50/ED50) [1, 8] | PI (TD50/ED50) [1, 9] | PI (TD50/ED50) [1, 10] | onset of action ([1]; mice) | Percent of Specific Binding, GABAA [2] [%] | effect of added compound on affinity of GABA to GABAA receptors [2] | Percent of Specific Binding, BDZ [3] [%] | further results
1 | S=c1[nH]nc(-c2cccc(Cl)c2)n1-c1ccc(Br)cc1 [Compound 6a, 4-(4-Bromophenyl)-5-(3-chlorophenyl)-2,4-dihydro-3H-1,2,4-triazole-3-thione] | 4/8 | 6/8 | 6/8 | 3/8 | 1.2 | 1.8 | 1.9 | 1.3 | quick onset of action | 17 | did not lead to an increase | 20 | anticonvulsant activity (in words) ([1]; MES test, mice): slightly weaker than that of valproate; responders at 300 mg/kg ([1]; 0.25 h, pretreatment time 15 min, mice): 50%; responders at 300 mg/kg ([1]; 0.5 h, pretreatment time 30 min, mice): 75%; responders at 300 mg/kg ([1]; 1 h, pretreatment time 60 min, mice): 75%; responders at 300 mg/kg ([1]; 2 h, pretreatment time 120 min, mice): 37.5%; ED50 ([1]; pretreatment time 15 min, mice, read-out: ED50 ± S.E. (MES test)): 298 ± 21.1 mg/kg; ED50 ([1]; pretreatment time 30 min, mice, read-out: ED50 ± S.E. (MES test)): 218 ± 21.7 mg/kg; ED50 ([1]; pretreatment time 60 min, mice, read-out: ED50 ± S.E. (MES test)): 209 ± 27.3 mg/kg; ED50 ([1]; pretreatment time 120 min, mice, read-out: ED50 ± S.E. (MES test)): 336 ± 14 mg/kg; elevation of the threshold for electroconvulsions [4]: 70%
2 | Cc1ccc(-n2c(-c3cccc(Cl)c3)n[nH]c2=S)cc1 [Compound 10a, 5-(3-Chlorophenyl)-4-(4-methylphenyl)-2,4-dihydro-3H-1,2,4-triazole-3-thione] | 8/8 | 8/8 | 8/8 | 6/8 | 5.9 | 4.5 | 1.8 | 1.4 | quick onset of action | 2 | did not lead to an increase | 9 | ED50 ([1]; read-out: ED50 ± S.E. (MES test), i.p., pretreatment time 15 min, mice): 57 ± 9.4 mg/kg; ED50 ([1]; read-out: ED50 ± S.E. (MES test), i.p., pretreatment time 30 min, mice): 74.5 ± 8.1 mg/kg; ED50 ([1]; read-out: ED50 ± S.E. (MES test), i.p., pretreatment time 60 min, mice): 187 ± 18.8 mg/kg; ED50 ([1]; read-out: ED50 ± S.E. (MES test), i.p., pretreatment time 120 min, mice): 281 ± 13.6 mg/kg; elevation of total brain concentration of valproate [5]: 52%
